Source: the NIST ThermoML archive (doi:10.1016/j.jct.2013.09.035)

Details: Liquid, Vibrating tube method

FCC(F)(F)F [1,1,1,2-tetrafluoroethane]
Details | mass density [kg/m3]
283.25 K, 60000 kPa | 1416.44
283.26 K, 1000 kPa | 1265.88
283.26 K, 5000 kPa | 1282.35
283.26 K, 10000 kPa | 1300.86
283.26 K, 20000 kPa | 1331.64
283.26 K, 40000 kPa | 1379.61
283.26 K, 80000 kPa | 1446.35
302.84 K, 20000 kPa | 1276.99
302.84 K, 40000 kPa | 1333.11
302.84 K, 80000 kPa | 1408.64
302.85 K, 1000 kPa | 1190.34
302.85 K, 5000 kPa | 1214.03
302.85 K, 10000 kPa | 1238.45
302.85 K, 60000 kPa | 1374.79
322.62 K, 5000 kPa | 1140.59
322.63 K, 10000 kPa | 1174.6
322.63 K, 20000 kPa | 1224.02
322.64 K, 40000 kPa | 1290.68
322.64 K, 60000 kPa | 1338.04
322.64 K, 80000 kPa | 1375.39
342.56 K, 5000 kPa | 1047.23
342.56 K, 10000 kPa | 1098.48
342.56 K, 20000 kPa | 1163.35
342.56 K, 40000 kPa | 1242.84
342.57 K, 60000 kPa | 1296.48
342.57 K, 80000 kPa | 1337.6
362.57 K, 5000 kPa | 924.58
362.58 K, 10000 kPa | 1014.86
362.58 K, 20000 kPa | 1102.88
362.58 K, 40000 kPa | 1197.86
362.58 K, 60000 kPa | 1258.31
362.58 K, 80000 kPa | 1303.78
